Literature values, collected in PubChem BioAssay AID1259409 (Chemical Carcinogenesis Research Information System (CCRIS), 2018).

Tested on: rodent chemically induced tumor inhibition, incidence and multiplicity
Experiment: CCRIS tumor inhibitor studies

O=C(OC[C@@H]1O[C@H](OC(=O)c2cc(O)c(O)c(OC(=O)c3cc(O)c(O)c(O)c3)c2)[C@@H](OC(=O)c2cc(O)c(O)c(OC(=O)c3cc(O)c(O)c(O)c3)c2)[C@H](OC(=O)c2cc(O)c(O)c(OC(=O)c3cc(O)c(O)c(O)c3)c2)[C@H]1OC(=O)c1cc(O)c(O)c(OC(=O)c2cc(O)c(O)c(O)c2)c1)c1cc(O)c(O)c(OC(=O)c2cc(O)c(O)c(O)c2)c1
tumour outcome (control, treated, inhibition, significance) (Carcinogen: 2,2'-DIHYDROXY-DI-N-PROPYLNITROSAMINE, 53609-64-6, N-ETHYL-N-HYDROXYETHYLNITROSAMINE, 13147-25-6, 3,2'-DIMETHYL-4-AMINO-, Carcinogen: 2,2'-DIHYDROXY-DI-N-PROPYLNITROSAMINE, 53609-64-6, N-ETHYL-N-HYDROXYETHYLNITROSAMINE, 13147-25-6, 3,2'-DIMETHYL-4-AMINO-, Dose [Inhibitor]: 0, 1% IN DIET FOR 32 WK BEGINNING 1 WK POST CARCINOGEN TREATMENT (STUDY DURATION: 36 WK), Route [Inhibitor]: ORAL, Species: RAT, Strain/Sex: F344/MALE, Target Tissue: Type of Lesion: KIDNEY: TRANSITIONAL CELL CARCINOMA, Dose [Carcinogen]: 1000 MG/KG BW DHPN TWICE, 1500 MG/KG BW EHEN TWICE, 75 MG/KG BW DMAB 3 TIMES ADMINISTERED OVER FIRST 3 WK, Promoter: NONE USED): 1/14 (7%), 0/12 (0%), 100%, not significant | tumour outcome (control, treated, inhibition, significance) (Carcinogen: 2,2'-DIHYDROXY-DI-N-PROPYLNITROSAMINE, 53609-64-6, N-ETHYL-N-HYDROXYETHYLNITROSAMINE, 13147-25-6, 3,2'-DIMETHYL-4-AMINO-, Carcinogen: 2,2'-DIHYDROXY-DI-N-PROPYLNITROSAMINE, 53609-64-6, N-ETHYL-N-HYDROXYETHYLNITROSAMINE, 13147-25-6, 3,2'-DIMETHYL-4-AMINO-, Dose [Inhibitor]: 0, 1% IN DIET FOR 32 WK BEGINNING 1 WK POST CARCINOGEN TREATMENT (STUDY DURATION: 36 WK), Route [Inhibitor]: ORAL, Species: RAT, Strain/Sex: F344/MALE, Target Tissue: Type of Lesion: LARGE INTESTINE: ADENOMA, Dose [Carcinogen]: 1000 MG/KG BW DHPN TWICE, 1500 MG/KG BW THEN TWICE, 75 MG/KG BW DMAB 3 TIMES ADMINISTERED OVER FIRST 3 WK, Dose [Carcinogen]: 1000 MG/KG BW DHPN TWICE, 1500 MG/KG BW THEN TWICE, 75 MG/KG BW DMAB 3 TIMES ADMINISTERED OVER FIRST 3 WK, Promoter: NONE USED): 7/14 (50%), 2/12 (17%), 66%, not significant | tumour outcome (control, treated, inhibition, significance) (Carcinogen: 2,2'-DIHYDROXY-DI-N-PROPYLNITROSAMINE, 53609-64-6, N-ETHYL-N-HYDROXYETHYLNITROSAMINE, 13147-25-6, 3,2'-DIMETHYL-4-AMINO-, Carcinogen: 2,2'-DIHYDROXY-DI-N-PROPYLNITROSAMINE, 53609-64-6, N-ETHYL-N-HYDROXYETHYLNITROSAMINE, 13147-25-6, 3,2'-DIMETHYL-4-AMINO-, Dose [Inhibitor]: 0, 1% IN DIET FOR 32 WK BEGINNING 1 WK POST CARCINOGEN TREATMENT (STUDY DURATION: 36 WK), Route [Inhibitor]: ORAL, Species: RAT, Strain/Sex: F344/MALE, Target Tissue: Type of Lesion: LARGE INTESTINE: CARCINOMA, Dose [Carcinogen]: 1000 MG/KG BW DHPN TWICE, 1500 MG/KG BW THEN TWICE, 75 MG/KG BW DMAB 3 TIMES ADMINISTERED OVER FIRST 3 WK, Promoter: NONE USED): 3/14 (21%), 1/12 (8%), 62%, not significant | tumour outcome (control, treated, inhibition, significance) (Carcinogen: 2,2'-DIHYDROXY-DI-N-PROPYLNITROSAMINE, 53609-64-6, N-ETHYL-N-HYDROXYETHYLNITROSAMINE, 13147-25-6, 3,2'-DIMETHYL-4-AMINO-, Carcinogen: 2,2'-DIHYDROXY-DI-N-PROPYLNITROSAMINE, 53609-64-6, N-ETHYL-N-HYDROXYETHYLNITROSAMINE, 13147-25-6, 3,2'-DIMETHYL-4-AMINO-, Dose [Inhibitor]: 0, 1% IN DIET FOR 32 WK BEGINNING 1 WK POST CARCINOGEN TREATMENT (STUDY DURATION: 36 WK), Route [Inhibitor]: ORAL, Species: RAT, Strain/Sex: F344/MALE, Target Tissue: Type of Lesion: LIVER: HEPATOCELLULAR CARCINOMA, Dose [Carcinogen]: 1000 MG/KG BW DHPN TWICE, 1500 MG/KG BW THEN, 75 MG/KG BW DMAB 3 TIMES ADMINISTERED OVER FIRST 3 WKS, Promoter: NONE USED): 6/14 (43%), 3/12 (25%), 42%, not significant | tumour outcome (control, treated, inhibition, significance) (Carcinogen: 2,2'-DIHYDROXY-DI-N-PROPYLNITROSAMINE, 53609-64-6, N-ETHYL-N-HYDROXYETHYLNITROSAMINE, 13147-25-6, 3,2'-DIMETHYL-4-AMINO-, Carcinogen: 2,2'-DIHYDROXY-DI-N-PROPYLNITROSAMINE, 53609-64-6, N-ETHYL-N-HYDROXYETHYLNITROSAMINE, 13147-25-6, 3,2'-DIMETHYL-4-AMINO-, Dose [Inhibitor]: 0, 1% IN DIET FOR 32 WK BEGINNING 1 WK POST CARCINOGEN TREATMENT (STUDY DURATION: 36 WK), Route [Inhibitor]: ORAL, Species: RAT, Strain/Sex: F344/MALE, Target Tissue: Type of Lesion: LUNG: ADENOMA, Dose [Carcinogen]: 1000 MG/KG BW DHPN TWICE, 1500 MG/KG BW THEN TWICE, 75 MG/KG BW DMAB 3 TIMES ADMINISTERED OVER FIRST 3 WK, Dose [Carcinogen]: 1000 MG/KG BW DHPN TWICE, 1500 MG/KG BW THEN TWICE, 75 MG/KG BW DMAB 3 TIMES ADMINISTERED OVER FIRST 3 WK, Promoter: NONE USED): 7/14 (50%), 7/12 (58%), -16%, not significant | tumour outcome (control, treated, inhibition, significance) (Carcinogen: 2,2'-DIHYDROXY-DI-N-PROPYLNITROSAMINE, 53609-64-6, N-ETHYL-N-HYDROXYETHYLNITROSAMINE, 13147-25-6, 3,2'-DIMETHYL-4-AMINO-, Carcinogen: 2,2'-DIHYDROXY-DI-N-PROPYLNITROSAMINE, 53609-64-6, N-ETHYL-N-HYDROXYETHYLNITROSAMINE, 13147-25-6, 3,2'-DIMETHYL-4-AMINO-, Dose [Inhibitor]: 0, 1% IN DIET FOR 32 WK BEGINNING 1 WK POST CARCINOGEN TREATMENT (STUDY DURATION: 36 WK), Route [Inhibitor]: ORAL, Species: RAT, Strain/Sex: F344/MALE, Target Tissue: Type of Lesion: LUNG: CARCINOMA, Dose [Carcinogen]: 1000 MG/KG BW DHPN TWICE, 1500 MG/KG BW THEN TWICE, 75 MG/KG BW DMAB 3 TIMES ADMINISTERED OVER FIRST 3 WK, Promoter: NONE USED): 1/14 (7%), 2/12 (17%), -143%, not significant | tumour outcome (control, treated, inhibition, significance) (Carcinogen: 2,2'-DIHYDROXY-DI-N-PROPYLNITROSAMINE, 53609-64-6, N-ETHYL-N-HYDROXYETHYLNITROSAMINE, 13147-25-6, 3,2'-DIMETHYL-4-AMINO-, Carcinogen: 2,2'-DIHYDROXY-DI-N-PROPYLNITROSAMINE, 53609-64-6, N-ETHYL-N-HYDROXYETHYLNITROSAMINE, 13147-25-6, 3,2'-DIMETHYL-4-AMINO-, Dose [Inhibitor]: 0, 1% IN DIET FOR 32 WK BEGINNING 1 WK POST CARCINOGEN TREATMENT (STUDY DURATION: 36 WK), Route [Inhibitor]: ORAL, Species: RAT, Strain/Sex: F344/MALE, Target Tissue: Type of Lesion: THYROID GLAND: CARCINOMA, Dose [Carcinogen]: 1000 MG/KG BW DHPN TWICE, 1500 MG/KG BW THEN TWICE, 75 MG/KG BW DMAB 3 TIMES ADMINISTERED OVER FIRST 3 WK, Promoter: NONE USED): 3/14 (21%), 2/12 (17%), 19%, not significant | tumour outcome (control, treated, inhibition, significance) (Carcinogen: 2,2'-DIHYDROXY-DI-N-PROPYLNITROSAMINE, 53609-64-6, N-ETHYL-N-HYDROXYETHYLNITROSAMINE, 13147-25-6, 3,2'-DIMETHYL-4-AMINO-, Carcinogen: 2,2'-DIHYDROXY-DI-N-PROPYLNITROSAMINE, 53609-64-6, N-ETHYL-N-HYDROXYETHYLNITROSAMINE, 13147-25-6, 3,2'-DIMETHYL-4-AMINO-, Dose [Inhibitor]: 0, 1% IN DIET FOR 32 WK BEGINNING 1 WK POST CARCINOGEN TREATMENT (STUDY DURATION: 36 WK), Route [Inhibitor]: ORAL, Species: RAT, Strain/Sex: F344/MALE, Target Tissue: Type of Lesion: URINARY BLADDER: CARCINOMA, Dose [Carcinogen]: 1000 MG/KG BW DHPN TWICE, 1500 MG/KG BW THEN TWICE, 75 MG/KG BW DMAB 3 TIMES ADMINISTERED OVER FIRST THREE WEEKS, Promoter: NONE USED): 1/14 (7%), 2/12 (17%), -143%, not significant | outcome (Carcinogen: 2,2'-DIHYDROXY-DI-N-PROPYLNITROSAMINE, 53609-64-6, N-ETHYL-N-HYDROXYETHYLNITROSAMINE, 13147-25-6, 3,2'-DIMETHYL-4-AMINO-, Carcinogen: 2,2'-DIHYDROXY-DI-N-PROPYLNITROSAMINE, 53609-64-6, N-ETHYL-N-HYDROXYETHYLNITROSAMINE, 13147-25-6, 3,2'-DIMETHYL-4-AMINO-, Dose [Inhibitor]: 0, 1% IN DIET FOR 32 WK BEGINNING 1 WK POST CARCINOGEN TREATMENT (STUDY DURATION: 36 WK), Route [Inhibitor]: ORAL, Species: RAT, Strain/Sex: F344/MALE, Target Tissue: Type of Lesion: URINARY BLADDER: PAPILLOMA, Dose [Carcinogen]: 1000 MG/KG BW DHPN TWICE, 1500 MG/KG BW THEN TWICE, 75 MG/KG BW DMAB 3 TIMES ADMINISTERED OVER FIRST 3 WK, Promoter: NONE USED): 0/14 (0%), 3/12 (25%), -100%, not significant | tumour outcome (control, treated, inhibition, significance) (Carcinogen: 7,12-DIMETHYLBENZ(A)ANTHRACENE [57-97-6], Dose [Inhibitor]: 400 UG IN 200 µL ACETONE ONCE 24 HR AFTER THE LAST INJECTION OF IRON DEXTRAN (STUDY DURATION: 35 WKS), Route [Inhibitor]: DERMAL, Species: MOUSE, Strain/Sex: SWISS ALBINO/FEMALE, Target Tissue: Type of Lesion: SKIN: TUMORS, Dose [Carcinogen]: 40 UG IN 200 µL ACETONE DAILY FOR 5 D BEGINNING 1 HR AFTER TANNIC ACID TREATMENT (STUDY DURATION: 35 WKS), Promoter: IRON DEXTRAN [9004-66-4]): 70%, 10%, 86%, not calculated | tumour outcome (control, treated, inhibition, significance) (Carcinogen: 7,12-DIMETHYLBENZ(A)ANTHRACENE [57-97-6], Dose [Inhibitor]: 400 UG IN 200 µL ACETONE ONCE (STUDY DURATION: 35 WKS), Route [Inhibitor]: DERMAL, Species: MOUSE, Strain/Sex: SWISS ALBINO/FEMALE, Target Tissue: Type of Lesion: SKIN: TUMORS, Dose [Carcinogen]: 40 UG IN 200 µL ACETONE DAILY FOR 5 D BEGINNING 1 HR AFTER TANNIC ACID TREATMENT (STUDY DURATION: 35 WKS)): 40%, 0%, 100%, not calculated
